Results on 9 molecules are retold here after PubChem BioAssay (NCI).

Some test systems named below: OVCAR-3 ovarian; HCC-2998 colon; HCT-15 colon; U251 CNS; LOX IMVI melanoma; SN12C renal; NCI-H226 lung; UO-31 renal; HCT-116 colon; TK-10 renal.
Experiment in all cases: NCI anticancer screen, dose series, 48 h

“And” between values parts separate entries of the source, which are not always exact repeats. Equal values may be shown once.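 Where inhibition never reached the appropriate level, the endpoint shown equals the highest concentration tested. Otherwise, values were interpolated linearly from a five-concentration, 48-hour dose response in 96-well plates. GI50 = concentration required for 50% inhibition of growth. Definition used: TGI = concentration required for complete inhibition of growth.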

For the molecule `CCN(CC)C(=S)SSC(=S)N(CC)CC`, the GI50 with OVCAR-3 ovarian was 15.1 µM and 15.3 µM; in the assay on HCC-2998 colon, 28.7 µM and 31.3 µM; with HCT-15 colon it was 20.1 µM and 20.9 µM; with U251 CNS, 15.8 µM and 13.7 µM; in the assay on LOX IMVI melanoma, 14.4 µM and 12.8 µM; with SN12C renal, 15 µM and 15.5 µM. Further, the GI50 in the assay on NCI-H226 lung was 27.6 µM and 82 µM; with UO-31 renal, 15.6 µM and 19.7 µM; in the assay on HCT-116 colon it was 11.4 µM; in the assay on TK-10 renal, 21.9 µM and 34.2 µM. Further, the TGI in the assay with OVCAR-3 ovarian is 32.5 µM and 29.4 µM; in the assay on HCC-2998 colon it was > 67.9 µM and 124 µM; in the assay on HCT-15 colon, > 56.6 µM and 59.8 µM; in the assay with U251 CNS, 31 µM and 30.7 µM; with LOX IMVI melanoma it was 31.2 µM and 29.9 µM; with SN12C renal, 29.3 µM and 31.9 µM. Also, the TGI in the assay on NCI-H226 lung is > 58.7 µM and 307 µM; in the assay on UO-31 renal, 31.9 µM and 49 µM; in the assay on HCT-116 colon, 24.9 µM; with TK-10 renal it was 43.4 µM and 99.7 µM.
Take `O=c1cccc(C#CC#CCCCO)o1`: the GI50 in the assay on OVCAR-3 ovarian is 1.93 µM; in the assay on HCC-2998 colon, 2.58 µM; in the assay with HCT-15 colon it was 2.11 µM; in the assay on U251 CNS, 2.74 µM; in the assay with LOX IMVI melanoma, 2.51 µM; in the assay with SN12C renal, 5.21 µM. The GI50 in the assay with NCI-H226 lung is 13.8 µM; with UO-31 renal it was 2.17 µM; in the assay with HCT-116 colon it was 3.06 µM; with TK-10 renal, 2.97 µM. Besides, the TGI is 4.94 µM in the assay with OVCAR-3 ovarian; 7.38 µM in the assay on HCC-2998 colon; 5.3 µM in the assay on HCT-15 colon; 7.96 µM with U251 CNS; above 27.9 µM in the assay with LOX IMVI melanoma; 16.7 µM in the assay on SN12C renal. For the same molecule, the TGI with NCI-H226 lung was 32.5 µM; in the assay on UO-31 renal it was above 100 µM; with HCT-116 colon it was 8.49 µM; with TK-10 renal, 9.55 µM.
Take `CC(=O)NNc1nc(C)c(C(=O)/C=C/c2ccc(/C=C/C(=O)c3sc(NNC(C)=O)nc3C)cc2)s1`: the TGI with OVCAR-3 ovarian, in the assay on HCC-2998 colon, with HCT-15 colon, with U251 CNS, in the assay with LOX IMVI melanoma and with SN12C renal was above 100 µM each time. For the same molecule, the TGI in the assay on NCI-H226 lung, in the assay on UO-31 renal, in the assay with HCT-116 colon and in the assay with TK-10 renal was above 100 µM throughout.
In the case of `O=S(=O)(NC1=NCCN1C(=S)SN1CCn2c1nsc2=S)c1cccc(OC(F)(F)F)c1`, the GI50 with OVCAR-3 ovarian is 5.07 µM; with HCC-2998 colon it was 5.16 µM; in the assay with HCT-15 colon it was 10.5 µM; in the assay with U251 CNS it was 17.2 µM; with LOX IMVI melanoma, 3.71 µM; in the assay with SN12C renal it was 11.3 µM. The GI50 in the assay with NCI-H226 lung was 16.2 µM; with UO-31 renal it was 14.1 µM; with HCT-116 colon, 10.2 µM; in the assay on TK-10 renal it was 13.8 µM. The TGI worked out at 16.4 µM in the assay with OVCAR-3 ovarian; 16.1 µM with HCC-2998 colon; 22.4 µM in the assay with HCT-15 colon; 30.9 µM in the assay on U251 CNS; 12.4 µM in the assay on LOX IMVI melanoma; 26.7 µM in the assay on SN12C renal. Besides, the TGI in the assay on NCI-H226 lung worked out at 31.7 µM; in the assay with UO-31 renal, 28.1 µM; in the assay with HCT-116 colon, 21.9 µM; in the assay with TK-10 renal it was 29.7 µM.
Regarding `Nc1ccc(C(=O)NN2C(=O)C(Cl)C2c2cccc(O)c2)cc1` (stereo not given), the TGI in the assay on OVCAR-3 ovarian was 29.9 µM; with HCC-2998 colon, 29.8 µM; in the assay on HCT-15 colon, 25.3 µM; with U251 CNS, 25.2 µM; with LOX IMVI melanoma it was 16.2 µM; in the assay on SN12C renal it was 32.3 µM. The TGI came out at 41.4 µM in the assay on NCI-H226 lung, 35 µM with UO-31 renal, 25.8 µM with HCT-116 colon and 30.5 µM in the assay with TK-10 renal.
Consider `Cn1nnc2c(C(N)=O)ncn2c1=O`, for which the TGI in the assay with OVCAR-3 ovarian, in the assay on HCC-2998 colon, in the assay on HCT-15 colon, with U251 CNS, in the assay on LOX IMVI melanoma and with SN12C renal was above 100 µM each time. Besides, the TGI in the assay with NCI-H226 lung, in the assay on UO-31 renal, in the assay with HCT-116 colon and in the assay on TK-10 renal was above 100 µM in each case.
As to `O=C(CCc1nc(=S)[nH][nH]1)Nc1cccc(C(F)(F)F)c1`, the TGI with OVCAR-3 ovarian, with HCC-2998 colon, in the assay on HCT-15 colon, in the assay with U251 CNS, in the assay on LOX IMVI melanoma and in the assay on SN12C renal was above 100 µM throughout. The TGI in the assay on NCI-H226 lung, in the assay on UO-31 renal, with HCT-116 colon and in the assay with TK-10 renal was above 100 µM throughout.
On to `CCC[CH2][Sn]([CH2]CCC)([O]C(=O)/C=C/c1ccccc1F)[O]C(=O)/C=C/c1ccccc1F`, for which the GI50 is 1.07 µM with OVCAR-3 ovarian; 1.06 µM in the assay with HCC-2998 colon; 0.74 µM with HCT-15 colon; 0.511 µM with U251 CNS; 0.289 µM with LOX IMVI melanoma; 1.03 µM in the assay on SN12C renal. For the same molecule, the GI50 in the assay on NCI-H226 lung was 0.775 µM; in the assay with UO-31 renal, 0.775 µM; in the assay on HCT-116 colon, 1.05 µM; in the assay with TK-10 renal, 0.898 µM. The TGI in the assay with OVCAR-3 ovarian worked out at 2.31 µM; in the assay on HCC-2998 colon, 2.29 µM; in the assay with HCT-15 colon it was 1.95 µM; with U251 CNS, 1.41 µM; with LOX IMVI melanoma, 0.906 µM; in the assay on SN12C renal, 2.29 µM. For the same molecule, the TGI worked out at 2.04 µM in the assay with NCI-H226 lung, 2.06 µM in the assay with UO-31 renal, 2.52 µM in the assay on HCT-116 colon and 2.03 µM in the assay on TK-10 renal.
For the molecule `CCOC1OC(=O)[C@H]2[C@@H]1[C@@H]1CC[C@H]2O1` (stereo not given in full), the GI50 is above 100 µM with OVCAR-3 ovarian; 13.4 µM with HCC-2998 colon; above 100 µM with HCT-15 colon; above 100 µM in the assay on U251 CNS; above 100 µM in the assay with LOX IMVI melanoma; above 100 µM in the assay on SN12C renal. The GI50 with NCI-H226 lung, in the assay with UO-31 renal, in the assay with HCT-116 colon and in the assay on TK-10 renal was above 100 µM in each case. Moreover, the TGI with OVCAR-3 ovarian was above 100 µM; with HCC-2998 colon it was 29.5 µM; with HCT-15 colon it was above 100 µM; in the assay on U251 CNS, above 100 µM; with LOX IMVI melanoma, above 100 µM; with SN12C renal, above 100 µM. The TGI with NCI-H226 lung, in the assay on UO-31 renal, in the assay on HCT-116 colon and in the assay with TK-10 renal was above 100 µM each time.
